{
  "source": "patent US10980889B1",
  "about": "(Revolution Medicines, Inc., priority 2018, dated 2021)",
  "key": {"P-Akt (S473)": {"system": "P-Akt (S473)", "assay": "Cell based AlphaLISA assay, inhibition of P-Akt (S473) in MDA-MB-468 cells (mTORC2 substrate)", "conditions": "Homo sapiens, 4 h, AlphaLisa, two to four hours at 37° C., read-out: pIC50 for Inhibition of mTORC1 and mTORC2 Substrate Phosphorylation p-AKT1/2/3-(S473) (converted)", "description": "(§1) Cell Based AlphaLISA Assays For Determining IC50 For Inhibition of P-Akt (S473), P-4E-BP1(T37/46), and P-P70S6K (T389) in MDA-MB-468 Cells\n(§2) mTOR Kinase Cellular Assay\n(§3) To measure functional activity of mTORC1 and mTORC2 in cells the phosphorylation of 4EBPT (Thr37/46) and P70S6K (Thr389), and AKT1/2/3 (Ser473) was monitored using AlphaLisa SureFire Ultra Kits (Perkin Elmer). […] Incubations were terminated by removal of the assay buffer and addition of lysis buffer provided with the assay kit. Samples were processed according to the manufacturer's instructions. The Alpha signal from the respective phosphoproteinswas measured in duplicate using a microplate reader (Envision, Perkin-Elmer or Spectramax M5, Molecular Devices). Inhibitor concentration response curves were analyzed using normalized IC50 regression curve filling with control based normalization."}, "P-P70S6K (T389)": {"system": "P-P70S6K (T389)", "assay": "Cell based AlphaLISA assay, inhibition of P-P70S6K (T389) in MDA-MB-468 cells (mTORC1 substrate)", "conditions": "Homo sapiens, 4 h, AlphaLisa, two to four hours at 37° C., read-out: pIC50 for Inhibition of mTORC1 and mTORC2 Substrate Phosphorylation p-P70S6K-(T389) (converted)", "description": "as §1, §2, §3"}, "P-4E-BP1 (T37/46)": {"system": "P-4E-BP1 (T37/46)", "assay": "Cell based AlphaLISA assay, inhibition of P-4E-BP1 (T37/46) in MDA-MB-468 cells (mTORC1 substrate)", "conditions": "Homo sapiens, 4 h, AlphaLisa, two to four hours at 37° C., read-out: pIC50 for Inhibition of mTORC1 and mTORC2 Substrate Phosphorylation P-4E-BP1-(T37/46) (converted)", "description": "as §1, §2, §3"}},
  "data": [
    {"smiles": "CO[C@H]1C[C@@H]2CC[C@@H](C)[C@@](O)(O2)C(=O)C(=O)N2CCCC[C@H]2C(=O)O[C@H]([C@H](C)C[C@@H]2CC[C@@H](OC(=O)NCc3cnc(N4CCN(C(=O)CN(C)CC(=O)NCCOCCOCCC(=O)N5CCc6cc(Cn7nc(-c8ccc9oc(N)nc9c8)c8c(N)ncnc87)ccc6C5)CC4)nc3)[C@H](OC)C2)CC(=O)[C@H](C)/C=C(\\C)[C@@H](O)[C@@H](OC)C(=O)[C@H](C)C[C@H](C)/C=C/C=C/C=C/1C", "note": "[Example 87]", "values": [
      {"measurement": "IC50", "setting": "P-Akt (S473)", "value": "3.16 to 31.6", "unit": "nM"},
      {"measurement": "IC50", "setting": "P-P70S6K (T389)", "value": "< 1", "unit": "nM"},
      {"measurement": "IC50", "setting": "P-4E-BP1 (T37/46)", "value": "< 3.16", "unit": "nM"}
    ]},
    {"smiles": "CO[C@H]1C[C@@H]2CC[C@@H](C)[C@@](O)(O2)C(=O)C(=O)N2CCCC[C@H]2C(=O)O[C@H]([C@H](C)C[C@@H]2CC[C@@H](OC(=O)NCc3cnc(N4CCN(CCOCCOCCOCCOCCC(=O)N5CCc6cc(Cn7nc(-c8ccc9oc(N)nc9c8)c8c(N)ncnc87)ccc6C5)CC4)nc3)[C@H](OC)C2)CC(=O)[C@H](C)/C=C(\\C)[C@@H](O)[C@@H](OC)C(=O)[C@H](C)C[C@H](C)/C=C/C=C/C=C/1C", "note": "[Example 88]", "values": [
      {"measurement": "IC50", "setting": "P-Akt (S473)", "value": "3.16 to 31.6", "unit": "nM"},
      {"measurement": "IC50", "setting": "P-P70S6K (T389)", "value": "< 1", "unit": "nM"},
      {"measurement": "IC50", "setting": "P-4E-BP1 (T37/46)", "value": "< 3.16", "unit": "nM"}
    ]},
    {"smiles": "CO[C@H]1C[C@@H]2CC[C@@H](C)[C@@](O)(O2)C(=O)C(=O)N2CCCC[C@H]2C(=O)O[C@H]([C@H](C)C[C@@H]2CC[C@@H](OC(=O)NCc3cnc(N4CCN(CCOCCOCCOCCOCCC(=O)N5CCc6cc(Cn7nc(-c8ccc9oc(N)nc9c8)c8c(N)ncnc87)ccc6C5)CC4)nc3)[C@H](OC)C2)C[C@@H](OC)[C@H](C)/C=C(\\C)[C@@H](O)[C@@H](OC)C(=O)[C@H](C)C[C@H](C)/C=C/C=C/C=C/1C", "note": "[Example 89]", "values": [
      {"measurement": "IC50", "setting": "P-Akt (S473)", "value": "> 1000", "unit": "nM"},
      {"measurement": "IC50", "setting": "P-P70S6K (T389)", "value": "< 1", "unit": "nM"},
      {"measurement": "IC50", "setting": "P-4E-BP1 (T37/46)", "value": "< 3.16", "unit": "nM"}
    ]},
    {"smiles": "CO[C@H]1C[C@@H]2CC[C@@H](C)[C@@](O)(O2)C(=O)C(=O)N2CCCC[C@H]2C(=O)O[C@H]([C@H](C)C[C@@H]2CC[C@@H](OC(=O)NCc3cnc(N4CCN(CCOCCOCCOCCOCCC(=O)NCCCCn5nc(-c6ccc7oc(N)nc7c6)c6c(N)ncnc65)CC4)nc3)[C@H](OC)C2)C[C@@H](OC)[C@H](C)/C=C(\\C)[C@@H](O)[C@@H](OC)C(=O)[C@H](C)C[C@H](C)/C=C/C=C/C=C/1C", "note": "[Example 90]", "values": [
      {"measurement": "IC50", "setting": "P-Akt (S473)", "value": "> 1000", "unit": "nM"},
      {"measurement": "IC50", "setting": "P-P70S6K (T389)", "value": "< 1", "unit": "nM"},
      {"measurement": "IC50", "setting": "P-4E-BP1 (T37/46)", "value": "> 1000", "unit": "nM"}
    ]},
    {"smiles": "CO[C@H]1C[C@@H]2CC[C@@H](C)[C@@](O)(O2)C(=O)C(=O)N2CCCC[C@H]2C(=O)O[C@H]([C@H](C)C[C@@H]2CC[C@@H](OC(=O)NCc3cnc(N4CCN(C(=O)CN(C)CC(=O)NCCOCCOCCC(=O)N5CCc6cc(Cn7nc(-c8ccc9oc(N)nc9c8)c8c(N)ncnc87)ccc6C5)CC4)nc3)[C@H](OC)C2)C[C@@H](OC)[C@H](C)/C=C(\\C)[C@@H](O)[C@@H](OC)C(=O)[C@H](C)C[C@H](C)/C=C/C=C/C=C/1C", "note": "[Example 91]", "values": [
      {"measurement": "IC50", "setting": "P-Akt (S473)", "value": "3.16 to 31.6", "unit": "nM"},
      {"measurement": "IC50", "setting": "P-P70S6K (T389)", "value": "< 1", "unit": "nM"},
      {"measurement": "IC50", "setting": "P-4E-BP1 (T37/46)", "value": "< 3.16", "unit": "nM"}
    ]},
    {"smiles": "CO[C@H]1C[C@@H]2CC[C@@H](C)[C@@](O)(O2)C(=O)C(=O)N2CCCCC2C(=O)O[C@H]([C@H](C)C[C@@H]2CC[C@@H](OC(=O)NCc3cnc(N4CCN(C(=O)CN(C)CC(=O)NCCOCCOCCC(=O)NCCCCn5nc(-c6ccc7oc(N)nc7c6)c6c(N)ncnc65)CC4)nc3)[C@H](OC)C2)C[C@@H](OC)[C@H](C)/C=C(\\C)[C@@H](O)[C@@H](OC)C(=O)[C@H](C)C[C@H](C)/C=C/C=C/C=C/1C", "note": "(stereo partly drawn) [Example 92]", "values": [
      {"measurement": "IC50", "setting": "P-Akt (S473)", "value": "3.16 to 31.6", "unit": "nM"},
      {"measurement": "IC50", "setting": "P-P70S6K (T389)", "value": "< 1", "unit": "nM"},
      {"measurement": "IC50", "setting": "P-4E-BP1 (T37/46)", "value": "< 3.16", "unit": "nM"}
    ]},
    {"smiles": "CO[C@H]1C[C@@H]2CC[C@@H](C)[C@@](O)(O2)C(=O)C(=O)N2CCCC[C@H]2C(=O)O[C@H]([C@H](C)C[C@@H]2CC[C@@H](OC(=O)NCc3cnc(N4CCN(c5ncc(C(=O)NCCOCCOCCOCCOCCC(=O)N6CCc7cc(Cn8nc(-c9ccc%10oc(N)nc%10c9)c9c(N)ncnc98)ccc7C6)c(N)n5)CC4)nc3)[C@H](OC)C2)C[C@@H](OC)[C@H](C)/C=C(\\C)[C@@H](O)[C@@H](OC)C(=O)[C@H](C)C[C@H](C)/C=C/C=C/C=C/1C", "note": "[Example 94]", "values": [
      {"measurement": "IC50", "setting": "P-Akt (S473)", "value": "< 3.16", "unit": "nM"},
      {"measurement": "IC50", "setting": "P-P70S6K (T389)", "value": "< 1", "unit": "nM"},
      {"measurement": "IC50", "setting": "P-4E-BP1 (T37/46)", "value": "< 3.16", "unit": "nM"}
    ]},
    {"smiles": "CO[C@H]1C[C@@H]2CC[C@@H](C)[C@@](O)(O2)C(=O)C(=O)N2CCCC[C@H]2C(=O)O[C@H]([C@H](C)C[C@@H]2CC[C@@H](OC(=O)NCc3cnc(N4CCN(c5ncc(C(=O)N(C)CCOCCOCCOCCOCCC(=O)N6CCc7cc(Cn8nc(-c9ccc%10oc(N)nc%10c9)c9c(N)ncnc98)ccc7C6)c(N)n5)CC4)nc3)[C@H](OC)C2)C[C@@H](OC)[C@H](C)/C=C(\\C)[C@@H](O)[C@@H](OC)C(=O)[C@H](C)C[C@H](C)/C=C/C=C/C=C/1C", "note": "[Example 95]", "values": [
      {"measurement": "IC50", "setting": "P-Akt (S473)", "value": "3.16 to 31.6", "unit": "nM"},
      {"measurement": "IC50", "setting": "P-P70S6K (T389)", "value": "< 1", "unit": "nM"},
      {"measurement": "IC50", "setting": "P-4E-BP1 (T37/46)", "value": "< 3.16", "unit": "nM"}
    ]}
  ]
}
